# Like-named read-outs stand apart in the source and are kept apart here.
# What was measured:
# human 5HT1A receptor [1] = molecular target: T1, human 5HT1A receptor (Homo sapiens, UniProt P08908); experiment: 5-HT1A Receptor Binding Assay ([3H] 8-OH-DPAT displacement in transfected CHO cells)
# T1 construct: expressed in transfected cells; host or cells: CHO cells
# T1 sequence (P08908 1-422): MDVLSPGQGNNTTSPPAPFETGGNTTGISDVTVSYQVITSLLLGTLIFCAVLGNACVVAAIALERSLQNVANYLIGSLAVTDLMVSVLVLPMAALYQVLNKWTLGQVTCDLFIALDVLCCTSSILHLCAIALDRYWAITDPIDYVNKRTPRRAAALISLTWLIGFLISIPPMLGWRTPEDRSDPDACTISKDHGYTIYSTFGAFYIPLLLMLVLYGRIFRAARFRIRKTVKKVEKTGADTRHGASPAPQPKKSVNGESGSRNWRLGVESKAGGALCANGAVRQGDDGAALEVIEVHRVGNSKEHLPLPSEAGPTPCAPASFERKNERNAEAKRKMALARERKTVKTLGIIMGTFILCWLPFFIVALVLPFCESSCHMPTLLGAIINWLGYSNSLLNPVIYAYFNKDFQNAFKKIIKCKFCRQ
# Description: 5-HT1A Receptor Binding Assay
# Stably transfected CHO cells are grown in DMEM containing 10% heat inactivated FBS and non-essential amino acids. Cells are scraped off the plate, transferred to centrifuge tubes, and washed twice by centrifugation (2000 rpm for 10 min., 4"C) in buffer (50 mM Tris pH 7.5). The resulting pellets are aliquoted and placed at -80°C. On the day of assay, the cells are thawed on ice and resuspended in buffer. The binding assay is performed in a 96 well microtiter plate in a total volume of 250 µL. […] Following a 30 minute incubation at room temperature, the reaction is terminated by the addition of ice cold buffer and rapid filtration through a GF/B filter presoaked for 30 minutes in 0.5% PEI.
# human 5HT1A receptor [2] = molecular target: T1, human 5HT1A receptor; experiment: 5-HT1A Receptor Intrinsic Activity Assay (forskolin-stimulated cAMP in transfected CHO cells, RIA); format: cell-based; conditions: for Emax: Emax = 0 % means no agonist activity; for IC50: antagonist mode: reversal of agonist-induced activity, antagonist preincubated 20 minutes before agonist and forskolin
# Description: 5-HT1A Receptor Intrinsic Activity Assay
# The intrinsic activity of compounds of the present invention was established by testing the claimed compounds ability to reverse the stimulation of cyclic adenosinemonophosphate (cAMP) in CHO cells stably transfected with the human 5-HT1A receptor.
# Stably transfected CHO cells were grown in DMEM containing 10% heat inactivated FBS and non-essential amino acids. The cells arc plated at a density of ? x10^6 cells per well in a 24 well plate and incubated for 2 days in a CO2 incubator. On the second day, the media is replaced with 0.5 mL treatment buffer (DMEM + 25 mM HEPES, 5 mM theophylline, 10 µM pargyline) and incubated for 10 minutes at 37°C. Wells are treated with forskolin (1 µM final concentration) followed immediately by the test compound (0.1 and 1 µM for initial screen) and incubated for an additional 10 minutes at 37°C. The reaction is terminated by removal of the media and addition of 0.5 mL ice cold assay buffer (supplied in the RIA kit). Plates are stored at -20°C prior to assessment of cAMP formation by RIA. EC50 values are determined for the active test compounds. Compounds shown to have no agonist activities (Emax = 0 %) are further analyzed for their ability to reverse agonist-induced activity. In separate experiments, 6 concentrations of antagonist are preincubated for 20 minutes prior to the addition of agonist and forskolin. Cells are harvested as described above. The CAMP kit is supplied by Amersham and the RIA is performed as per kit instructions, and calculations of IC50 performed by GraphPad Prism.
# [3] = displacement of [3H] 8-OH-DPAT (1.5 nM), CHO cells stably transfected with human 5HT1A receptor
# [4] = agonist mode: reversal of forskolin (1 µM) stimulated cAMP, CHO cells
smiles,measurement,setting,value
"COc1ccc(F)cc1C1CCN(C[C@@H](Cc2ccccc2)N(C)C(=O)C2(C)CCCCC2)CC1 [Example 1, 1-Methyl-cyclohexanecarboxylic acid {(1R)-1-benzyl-2-[4-(5-fluoro-2-methoxy-phenyl)-piperidine-1-yl]-ethyl}-methyl-amide]",Ki,human 5HT1A receptor [1]; [3],10.7 nM
same,Emax,human 5HT1A receptor [2]; [4],0%
same,IC50,human 5HT1A receptor [2],11.1 nM
"COc1ccc(F)cc1C1=CCN(C[C@@H](Cc2ccccc2)N(C)C(=O)C2(C)CCCCC2)CC1 [Example 2, 1-Methyl-cyclohexanecarboxylic acid {(1R)-1-benzyl-2-[4-(5-fluoro-2-methoxy-phenyl)-1,2,5,6-tetrahydro-4H-pyridin-1-yl]-ethyl}-methyl-amide]",Ki,human 5HT1A receptor [1],4.9 nM
same,Emax,human 5HT1A receptor [2]; [4],0%
"COc1ccccc1C1CCN(C[C@@H](Cc2ccccc2)NC(=O)C2(C)CCCCC2)CC1 [Example 5, (R)-1-Methyl-cyclohexanecarboxylic acid {1-benzyl-2-[4-(2-methoxy-phenyl)-piperidin-1-yl]-ethyl}-amide]",Ki,human 5HT1A receptor [1]; [3],0.24 nM
same,Emax,human 5HT1A receptor [2]; [4],0%
same,IC50,human 5HT1A receptor [2],0.29 nM
"COc1ccccc1C1=CCN(C[C@@H](Cc2ccccc2)NC(=O)C2(C)CCCCC2)CC1 [Example 4, (R)-1-Methyl-cyclohexanecarboxylic acid{1-benzyl-2-[4-(2-methoxy-phenyl)-3,6-dihydro-2H-pyridin-1-yl]-ethyl}-amide]",Emax,human 5HT1A receptor [2]; [4],84%
"COc1ccccc1C1=CCN(C[C@@H](Cc2ccccc2)NC(=O)C2CCCCC2)CC1 [Example 3, (R)-Cyclohexanecarboxylic acid{1-benzyl-2-[4-(2-methoxy-phenyl)-3,6-dihydro-2H-pyridin-1-yl]-ethyl}-amide]",Emax,human 5HT1A receptor [2]; [4],84%
"COc1ccccc1C1CCN(C[C@@H](Cc2ccccc2)NC(=O)C2CCCCC2)CC1 [Example 6, (R)-Cyclohexanecarboxylic acid {1-benzyl-2-[4-(2-methoxy-phenyl)-piperidin-1-yl]-ethyl}-amide]",Ki,human 5HT1A receptor [1]; [3],0.23 nM
same,EC50,human 5HT1A receptor [2]; [4],16.9 nM
same,Emax,human 5HT1A receptor [2]; [4],92%

# — patent EP1140830B1, “ARYLPIPERIDINE AND ARYL-1,2,5,6-TETRAHYDROPYRIDINE AMIDE DERIVATIVES HAVING 5HT1A RECEPTOR ACTIVITY” (Wyeth, priority 1998, dated 2000)
